Results as given in patent publication US20210255193A1, “LYSINE REACTIVE PROBES AND USES THEREOF” (The Scripps Research Institute, priority 2017, published 2021).
One block for each molecule: values may come before it.

Legend:
Assay in all cases: competitive isoTOP-ABPP
Assay type in all cases: binding
[1] = biological target: T1, FH Fumarate hydratase, mitochondrial (Homo sapiens, UniProt P07954); settings: 50 uM, 231 sol, in vitro
T1 construct: isoTOP-ABPP experiments performed in cell lysates (in vitro); endogenous in cells; host or cells: MDA-MB-231 soluble lysate
T1 sequence (P07954 45-510): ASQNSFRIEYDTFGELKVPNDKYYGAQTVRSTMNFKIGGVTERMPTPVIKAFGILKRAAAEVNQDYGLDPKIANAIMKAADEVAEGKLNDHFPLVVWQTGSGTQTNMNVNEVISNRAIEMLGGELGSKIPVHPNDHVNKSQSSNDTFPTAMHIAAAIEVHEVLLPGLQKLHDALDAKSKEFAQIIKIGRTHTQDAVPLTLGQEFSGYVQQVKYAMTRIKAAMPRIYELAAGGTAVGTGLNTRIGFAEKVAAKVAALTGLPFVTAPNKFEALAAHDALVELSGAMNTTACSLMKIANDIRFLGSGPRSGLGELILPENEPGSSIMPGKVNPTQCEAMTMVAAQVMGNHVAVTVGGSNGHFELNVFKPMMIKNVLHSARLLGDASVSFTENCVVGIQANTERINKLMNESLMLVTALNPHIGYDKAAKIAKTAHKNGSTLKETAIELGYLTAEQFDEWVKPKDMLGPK
Summary of the method: (§1)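 Readout: isotopic light/heavy MS1 peak-area ratio (R, DMSO heavy over compound light), median across peptides sharing a modified lysine. Lysate received fragment (activated esters 50 μM, guanidinylating agents 100 μM final) or DMSO, then 0.1 mM STP-alkyne probe for 1 h at ambient temperature.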

[2] = biological target: T2, DNMT1 DNA (cytosine-5)-methyltransferase 1 (Homo sapiens, UniProt P26358); settings: for isoTOP-ABPP ratio, lysine P26358_K45: 50 uM_231_sol_in vitro
T2 construct: isoTOP-ABPP experiments performed in cell lysates (in vitro); endogenous in cells; host or cells: soluble proteome of human cancer cell lines (MDA-MB-231; Ramos and Jurkat also prepared)
Summary of the method: as §1

[3] = biological target: T3, NLN Neurolysin, mitochondrial (Homo sapiens, UniProt Q9BYT8); settings: for isoTOP-ABPP ratio (R) at liganded lysine Q9BYT8_K253: sol, 231
T3 construct: isoTOP-ABPP experiments performed in cell lysates (in vitro); endogenous in cells; host or cells: soluble proteome of human cancer cell lines (MDA-MB-231; Ramos and Jurkat also prepared)
Summary of the method: as §1

[4] = biological target: T4, AKR1C3 Aldo-keto reductase family 1 member C3 (Homo sapiens, UniProt P42330); settings: for isoTOP-ABPP ratio (R) at liganded lysine P42330_K270 / isoTOP-ABPP reactivity ratio at lysine P42330_K270: 50 uM, in vitro; for isoTOP-ABPP ratio (R) at liganded lysine P42330_K270: sol, 231; for isoTOP-ABPP reactivity ratio at lysine P42330_K270: 231 sol; for isoTOP-ABPP ratio, lysine P42330_K270: possible other lysine P52895_K270, P17516_K270, Q04828_K270
T4 construct: isoTOP-ABPP experiments performed in cell lysates (in vitro); endogenous in cells; host or cells: soluble proteome of human cancer cell lines (MDA-MB-231; Ramos and Jurkat also prepared)
T4 sequence (P42330 1-323): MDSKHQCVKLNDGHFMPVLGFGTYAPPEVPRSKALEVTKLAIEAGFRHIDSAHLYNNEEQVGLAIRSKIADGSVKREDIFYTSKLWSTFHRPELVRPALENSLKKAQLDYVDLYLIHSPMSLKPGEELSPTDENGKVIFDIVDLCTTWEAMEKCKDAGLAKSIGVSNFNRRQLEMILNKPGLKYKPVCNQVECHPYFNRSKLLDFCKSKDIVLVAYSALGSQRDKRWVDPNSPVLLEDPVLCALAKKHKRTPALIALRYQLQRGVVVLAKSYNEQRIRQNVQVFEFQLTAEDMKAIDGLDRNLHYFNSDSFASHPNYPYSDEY
Summary of the method: as §1

DTYMK Thymidylate kinase = biological target: T5, DTYMK Thymidylate kinase (Homo sapiens, UniProt P23919); settings: 50 uM, in vitro; for isoTOP-ABPP reactivity ratio at lysine P23919_K118: 231 sol
T5 construct: isoTOP-ABPP experiments performed in cell lysates (in vitro); endogenous in cells; host or cells: soluble proteome of human cancer cell lines (MDA-MB-231; Ramos and Jurkat also prepared)
T5 sequence (P23919 1-212): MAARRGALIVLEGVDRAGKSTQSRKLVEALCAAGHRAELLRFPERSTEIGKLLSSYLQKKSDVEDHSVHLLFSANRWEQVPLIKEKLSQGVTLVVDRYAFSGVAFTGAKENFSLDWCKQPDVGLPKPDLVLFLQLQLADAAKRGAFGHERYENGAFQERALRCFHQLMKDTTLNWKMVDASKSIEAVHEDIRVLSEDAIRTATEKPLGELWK
Summary of the method: as §1

FAM136A Protein FAM136A = biological target: T6, FAM136A Protein FAM136A (Homo sapiens, UniProt Q96C01); settings: for isoTOP-ABPP ratio (R) at liganded lysine Q96C01_K99: sol, 231
T6 construct: isoTOP-ABPP experiments performed in cell lysates (in vitro); endogenous in cells; host or cells: soluble proteome of human cancer cell lines (MDA-MB-231; Ramos and Jurkat also prepared)
Summary of the method: as §1

T6 sequence (Q96C01 whole entry): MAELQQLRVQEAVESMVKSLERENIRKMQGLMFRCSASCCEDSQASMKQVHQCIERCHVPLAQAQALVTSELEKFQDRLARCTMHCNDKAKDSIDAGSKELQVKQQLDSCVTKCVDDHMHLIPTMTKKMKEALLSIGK
T2 sequence (P26358 whole entry): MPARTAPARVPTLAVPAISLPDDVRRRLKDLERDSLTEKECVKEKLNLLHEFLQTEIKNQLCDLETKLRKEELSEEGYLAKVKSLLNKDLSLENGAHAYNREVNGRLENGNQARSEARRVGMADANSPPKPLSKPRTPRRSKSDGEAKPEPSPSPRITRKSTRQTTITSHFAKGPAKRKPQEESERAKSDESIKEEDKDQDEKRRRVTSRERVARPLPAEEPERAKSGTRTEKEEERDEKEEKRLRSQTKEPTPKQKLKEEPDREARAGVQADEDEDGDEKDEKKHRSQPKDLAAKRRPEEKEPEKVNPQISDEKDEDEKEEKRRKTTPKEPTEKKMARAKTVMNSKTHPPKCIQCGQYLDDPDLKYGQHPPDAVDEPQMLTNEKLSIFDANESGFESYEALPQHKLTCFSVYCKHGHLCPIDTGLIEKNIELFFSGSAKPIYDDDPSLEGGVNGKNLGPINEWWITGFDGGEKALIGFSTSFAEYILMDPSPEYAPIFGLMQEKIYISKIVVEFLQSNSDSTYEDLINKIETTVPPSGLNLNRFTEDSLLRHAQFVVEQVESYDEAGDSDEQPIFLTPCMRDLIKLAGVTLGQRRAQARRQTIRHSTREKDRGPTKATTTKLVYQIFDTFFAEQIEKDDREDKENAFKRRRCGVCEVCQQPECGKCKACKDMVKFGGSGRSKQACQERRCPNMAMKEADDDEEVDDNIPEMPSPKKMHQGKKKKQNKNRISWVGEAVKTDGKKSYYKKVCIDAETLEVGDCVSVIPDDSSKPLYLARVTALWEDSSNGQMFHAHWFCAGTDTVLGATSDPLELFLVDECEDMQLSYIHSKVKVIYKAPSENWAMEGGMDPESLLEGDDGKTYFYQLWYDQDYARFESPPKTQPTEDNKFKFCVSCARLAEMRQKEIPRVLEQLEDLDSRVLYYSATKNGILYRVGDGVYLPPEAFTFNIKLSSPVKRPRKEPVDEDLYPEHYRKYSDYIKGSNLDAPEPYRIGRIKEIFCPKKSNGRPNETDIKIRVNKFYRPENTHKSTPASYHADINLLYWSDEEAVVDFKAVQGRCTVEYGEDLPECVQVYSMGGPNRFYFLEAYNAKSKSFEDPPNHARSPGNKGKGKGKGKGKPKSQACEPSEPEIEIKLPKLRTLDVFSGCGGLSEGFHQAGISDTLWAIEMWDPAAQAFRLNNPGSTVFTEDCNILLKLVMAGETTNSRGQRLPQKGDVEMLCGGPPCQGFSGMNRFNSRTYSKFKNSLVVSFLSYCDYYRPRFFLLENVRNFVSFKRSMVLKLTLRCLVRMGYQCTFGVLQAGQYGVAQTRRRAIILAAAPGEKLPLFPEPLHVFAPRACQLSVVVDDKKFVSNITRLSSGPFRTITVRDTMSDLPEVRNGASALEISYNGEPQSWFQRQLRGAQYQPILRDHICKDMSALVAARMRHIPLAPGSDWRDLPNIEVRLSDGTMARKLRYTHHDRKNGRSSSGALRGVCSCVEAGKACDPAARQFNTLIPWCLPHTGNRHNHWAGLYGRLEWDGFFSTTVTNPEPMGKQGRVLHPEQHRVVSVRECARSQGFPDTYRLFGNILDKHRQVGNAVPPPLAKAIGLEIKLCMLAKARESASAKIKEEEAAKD
T3 sequence (Q9BYT8 38-704): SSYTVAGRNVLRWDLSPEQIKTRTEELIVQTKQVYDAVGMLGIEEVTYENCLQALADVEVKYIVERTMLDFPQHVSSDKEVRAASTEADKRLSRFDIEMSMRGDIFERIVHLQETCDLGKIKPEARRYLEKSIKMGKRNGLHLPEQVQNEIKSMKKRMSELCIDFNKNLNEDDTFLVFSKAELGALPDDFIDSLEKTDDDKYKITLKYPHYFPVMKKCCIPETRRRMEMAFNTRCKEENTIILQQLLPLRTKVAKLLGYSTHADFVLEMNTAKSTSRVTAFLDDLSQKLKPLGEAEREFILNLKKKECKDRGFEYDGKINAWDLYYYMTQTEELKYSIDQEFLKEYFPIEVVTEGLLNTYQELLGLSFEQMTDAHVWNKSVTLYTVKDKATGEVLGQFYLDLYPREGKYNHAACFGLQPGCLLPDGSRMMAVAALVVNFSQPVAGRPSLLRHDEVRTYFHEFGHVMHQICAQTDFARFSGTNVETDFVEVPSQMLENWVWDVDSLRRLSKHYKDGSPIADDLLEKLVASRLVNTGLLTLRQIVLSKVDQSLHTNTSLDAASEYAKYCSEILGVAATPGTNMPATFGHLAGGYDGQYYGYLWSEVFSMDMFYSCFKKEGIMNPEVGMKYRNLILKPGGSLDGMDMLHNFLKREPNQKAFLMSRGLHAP

R value (DMSO/fragment) for probe 1 labeling ([1]; P07954_K311): 2.6
SMILES: COc1cc(CCC(=O)Oc2c(F)c(F)c(F)c(F)c2F)cc(OC)c1OC [fragment 23, Pentafluorophenyl 3-(3,4,5-trimethoxyphenyl)propanoate]

R value (DMSO/fragment) for probe 1 labeling ([2]; P26358_K45, 50 uM, 231 sol, in vitro): 0.9 | R value (DMSO/fragment) for probe 1 labeling ([3]; Q9BYT8_K253, 50 uM, 231 sol, in vitro): 1.5
SMILES: Cn1cc(CC(=O)Oc2c(F)c(F)c(F)c(F)c2F)c2ccccc21 [fragment 22, Pentafluorophenyl 2-(1-methyl-1H-indol-3-yl)acetate]

SMILES: O=C(Oc1ccc([N+](=O)[O-])cc1[N+](=O)[O-])c1ccc2ccccc2n1 [fragment 35, 2,4-Dinitrophenyl quinoline-2-carboxylate]
isoTOP-ABPP ratio (R) at liganded lysine P42330_K270 [4]: 0.6 | isoTOP-ABPP ratio (R) at liganded lysine P23919_K118 (DTYMK Thymidylate kinase; sol, 231): 0.9 | isoTOP-ABPP ratio (R) at liganded lysine Q9BYT8_K253 ([3]; 50 uM, in vitro): 1.1

isoTOP-ABPP reactivity ratio at lysine P42330_K270 [4]: 4.2 | isoTOP-ABPP reactivity ratio at lysine P23919_K118 (DTYMK Thymidylate kinase): 1.1
SMILES: O=C(Oc1c(F)c(F)c(F)c(F)c1F)C1CCN(C(=O)OCc2ccccc2)CC1 [fragment 24, 1-Benzyl 4-(pentafluorophenyl) piperidine-1,4-dicarboxylate]

isoTOP-ABPP reactivity ratio at lysine P26358_K45 ([2]; 50 uM, 231 sol, in vitro): 0.9 | isoTOP-ABPP reactivity ratio at lysine P23919_K118 (DTYMK Thymidylate kinase): 1.1 | isoTOP-ABPP reactivity ratio at lysine Q9BYT8_K253 ([3]; 50 uM, 231 sol, in vitro): 0.9
SMILES: O=C(Oc1c(F)c(F)c(F)c(F)c1F)c1ccc2ccccc2n1 [fragment 25, Pentafluorophenyl quinoline-2-carboxylate]

SMILES: O=C(Oc1ccc([N+](=O)[O-])cc1[N+](=O)[O-])c1cc(C(F)(F)F)cc(C(F)(F)F)c1 [fragment 31, 2,4-Dinitrophenyl 3,5-bis(trifluoromethyl)benzoate]
isoTOP-ABPP reactivity ratio at lysine P07954_K311 [1]: 1.4 | isoTOP-ABPP reactivity ratio at lysine Q9BYT8_K253 ([3]; 50 uM, 231 sol, in vitro): 1.5

isoTOP-ABPP ratio, lysine P42330_K270 ([4]; 100 uM_231_sol_in vitro): 0.7 | isoTOP-ABPP ratio, lysine Q9BYT8_K253 ([3]; 100 uM_231_sol_in vitro): 1.2
SMILES: CC(C)(C)OC(=O)N=C(NC(=O)OC(C)(C)C)n1cccn1 [fragment 50, reference compound]

SMILES: O=C(Oc1ccc([N+](=O)[O-])cc1[N+](=O)[O-])c1ccccc1Nc1cccc(C(F)(F)F)c1 [fragment 40, 2,4-Dinitrophenyl 2-((3-(trifluoromethyl)phenyl)amino)benzoate]
isoTOP-ABPP ratio (R) at liganded lysine P42330_K270 [4]: 2.2 | isoTOP-ABPP ratio (R) at liganded lysine Q96C01_K99 (FAM136A Protein FAM136A; 50 uM, in vitro): 0.8 | isoTOP-ABPP ratio (R) at liganded lysine Q9BYT8_K253 ([3]; 50 uM, in vitro): 0.9

SMILES: N#Cc1ccc(C(=O)Oc2ccc([N+](=O)[O-])cc2[N+](=O)[O-])cc1 [fragment 44, 2,4-Dinitrophenyl 4-cyanobenzoate]
isoTOP-ABPP ratio, lysine P42330_K270 ([4]; 50 uM_231_sol_in vitro): 0.5 | isoTOP-ABPP ratio, lysine P26358_K45 [2]: 0.7

SMILES: O=C(Oc1ccc([N+](=O)[O-])cc1[N+](=O)[O-])C(c1ccccc1)c1ccccc1 [fragment 30, 2,4-Dinitrophenyl 2,2-diphenylacetate]
isoTOP-ABPP reactivity ratio at lysine Q96C01_K99 (FAM136A Protein FAM136A; 50 uM, 231 sol, in vitro): 0.8 | isoTOP-ABPP reactivity ratio at lysine P07954_K311 [1]: 5.2 | isoTOP-ABPP reactivity ratio at lysine Q9BYT8_K253 ([3]; 50 uM, 231 sol, in vitro): 1.3

SMILES: O=C(ON1C(=O)CCC1=O)c1cc(C(F)(F)F)cc(C(F)(F)F)c1 [fragment 46, 3,5-Bis(trifluoromethyl)benzoic acid NHS ester]
isoTOP-ABPP ratio, lysine P26358_K45 [2]: 2.4 | isoTOP-ABPP ratio, lysine Q96C01_K99 (FAM136A Protein FAM136A; 50 uM_231_sol_in vitro): 0.6 | isoTOP-ABPP ratio, lysine Q9BYT8_K253 ([3]; 50 uM_231_sol_in vitro): 1.5

SMILES: CC(=O)Oc1ccc([N+](=O)[O-])cc1[N+](=O)[O-] [fragment 43, 2,4-Dinitrophenyl acetate]
isoTOP-ABPP ratio (R) at liganded lysine Q96C01_K99 (FAM136A Protein FAM136A; 50 uM, in vitro): 1.1 | isoTOP-ABPP ratio (R) at liganded lysine Q9BYT8_K253 ([3]; 50 uM, in vitro): 0.8

isoTOP-ABPP reactivity ratio at lysine P42330_K270 [4]: 1.8 | isoTOP-ABPP reactivity ratio at lysine P23919_K118 (DTYMK Thymidylate kinase): 0.9
SMILES: CCn1cc(C(=O)Oc2c(F)c(F)c(F)c(F)c2F)c(=O)c2ccc(C)nc21 [fragment 28, Pentafluorophenyl 1-ethyl-7-methyl-4-oxo-1,4-dihydro-1,8-naphthyridine-3-carboxylate]
